# Measurements published in publication PMC8544245 (Journal of medicinal chemistry, 2020).
# Where “and” joins values, the source holds several entries; their conditions need not be identical. Equal entries are not always repeated. Where two headings read alike, the source gives them in different places. Non-standard residues stand in square brackets, D forms with d. Residues, ends and D or L forms follow the SMILES beside them. *: point of attachment. d(hPhe) = N[C@H](CCc1ccccc1)C(=O)O; Bn = c1ccc(C*)cc1; NHOH = ON*
# Columns and labels:
# [1] = test system: elastase-induced emphysema (lung tissue destruction); assay: Murine model of elastase-induced emphysema, mean linear intercept; type: in vivo, C57BL/6 mice; details: PPE intranasal, i.p. treatment once daily for 7 days from day 2, read at day 21
# hMMP-12 [2] = molecular target: T1, hMMP-12 (Homo sapiens, UniProt P39900); assay: SensoLyte 520 MMP-12 Fluorimetric Assay Kit enzymatic inhibition assay; type: biochemical
# T1 sequence (P39900 106-263): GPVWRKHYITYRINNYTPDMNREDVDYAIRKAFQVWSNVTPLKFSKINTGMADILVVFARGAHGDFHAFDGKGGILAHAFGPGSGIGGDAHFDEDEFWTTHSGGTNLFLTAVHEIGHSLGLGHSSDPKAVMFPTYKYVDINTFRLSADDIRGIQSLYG
# MMP-1 [3] = molecular target: T2, MMP-1 (Homo sapiens, UniProt P03956); assay: SensoLyte 520 Fluorimetric Assay Kit selectivity assay, MMP-1; type: biochemical; details: agents tested at 25 nM or at 4 nM (Figure 5)
# T2 sequence (P03956 100-269 limits assumed): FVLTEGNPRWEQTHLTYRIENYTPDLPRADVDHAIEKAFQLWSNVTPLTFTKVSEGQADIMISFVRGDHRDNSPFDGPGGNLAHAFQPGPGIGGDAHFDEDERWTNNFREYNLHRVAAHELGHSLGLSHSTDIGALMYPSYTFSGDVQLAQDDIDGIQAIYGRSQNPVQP
# MMP-3 [4] = molecular target: T3, MMP-3 (Homo sapiens, UniProt P08254); assay: SensoLyte 520 Fluorimetric Assay Kit selectivity assay, MMP-3; type: biochemical; details: agents tested at 25 nM or at 4 nM (Figure 5)
# T3 sequence (P08254 100-272 limits assumed): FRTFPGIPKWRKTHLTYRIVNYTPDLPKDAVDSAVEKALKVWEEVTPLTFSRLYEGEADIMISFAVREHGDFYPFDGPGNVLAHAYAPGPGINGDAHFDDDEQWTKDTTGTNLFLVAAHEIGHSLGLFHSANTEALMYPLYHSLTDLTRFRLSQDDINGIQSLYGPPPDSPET
# MMP-9 [5] = molecular target: T4, MMP-9 (Homo sapiens, UniProt P14780); assay: SensoLyte 520 Fluorimetric Assay Kit selectivity assay, MMP-9; type: biochemical; details: agents tested at 25 nM or at 4 nM (Figure 5)
# T4 sequence (P14780 107-444 limits assumed): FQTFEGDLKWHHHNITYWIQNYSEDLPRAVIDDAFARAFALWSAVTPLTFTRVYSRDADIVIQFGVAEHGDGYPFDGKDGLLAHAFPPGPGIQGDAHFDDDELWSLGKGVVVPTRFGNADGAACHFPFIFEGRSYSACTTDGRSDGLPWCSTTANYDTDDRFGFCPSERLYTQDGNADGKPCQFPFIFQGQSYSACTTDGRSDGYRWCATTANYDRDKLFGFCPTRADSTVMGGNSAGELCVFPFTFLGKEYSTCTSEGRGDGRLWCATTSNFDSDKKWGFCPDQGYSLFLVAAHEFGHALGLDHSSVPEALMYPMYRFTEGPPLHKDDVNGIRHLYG
# MMP-13 [6] = molecular target: T5, MMP-13 (Homo sapiens, UniProt P45452); assay: SensoLyte 520 Fluorimetric Assay Kit selectivity assay, MMP-13; type: biochemical; details: agents tested at 25 nM or at 4 nM (Figure 5)
# MMP-14 [7] = molecular target: T6, MMP-14 (Homo sapiens, UniProt P50281); assay: SensoLyte 520 Fluorimetric Assay Kit selectivity assay, MMP-14; type: biochemical; details: agents tested at 25 nM or at 4 nM (Figure 5)
# hMMP-12 [8] = molecular target: T1, hMMP-12; details: read-out: IC50 for hMMP-12 inhibition; dose response (Figure 2B); cited from earlier work
# MMP-1 [9] = molecular target: T2, MMP-1; details: even at 1 μM; cited from earlier work
# MMP-3 [10] = molecular target: T3, MMP-3; details: at 55 nM; cited from earlier work
# MMP-9 [11] = molecular target: T4, MMP-9; details: even at 1 μM; cited from earlier work
# MMP-13 [12] = molecular target: T5, MMP-13; details: even at 1 μM; cited from earlier work
# MMP-14 [13] = molecular target: T6, MMP-14; details: even at 1 μM; cited from earlier work
# [14] = type: in vivo; details: 30 mg/kg i.p., Balb-C mice; converted from ng/ml
# [15] = Solubility in the dosing formulation; type: physicochemical; details: 10% DMSO, 40% PEG400, and 10% (2-hydroxypropyl)-Beta-cyclodextrin in PBS
mode of hMMP-12 inhibition (hMMP-12 [2]),inhibition of MMP-1 (MMP-1 [3]),inhibition of MMP-3 (MMP-3 [4]),inhibition of MMP-9 (MMP-9 [5]),inhibition of MMP-13 (MMP-13 [6]),inhibition of MMP-14 (MMP-14 [7]),SMILES,emphysema-like pathology (MLI) compared to PPE + vehicle-treated mice [1],other results
,,,,,,"COC(=O)Nc1ccc2oc3cc(S(=O)(=O)N[C@H](C(=O)O)C(C)C)ccc3c2c1 [MMP408, (S)-2-(8-(methoxycarbonylamino)dibenzo[b,d]furan-3-sulfonamido)-3-methylbutanoic acid, reference compound]",significant decrease,
competitive inhibitors,did not display significant inhibition,appreciable inhibition,did not display significant inhibition,did not display significant inhibition,did not display significant inhibition,COc1ccc(CCC[C@H](NC(=O)CN2CCOCC2)C(=O)N[C@H](CCc2ccc(OC)cc2)C(=O)N[C@H](Cc2ccc(C)cc2)C(=O)NO)cc1 [compound 26],significant decrease,
,,,,,,CC(=O)N[C@@H](COCc1ccccc1)C(=O)N[C@H](CCc1ccccc1)C(=O)N[C@H](Cc1ccccc1)C(=O)NO [compound 1] (Ac-Ser(Bn)-[d(hPhe)]-[dF]-{NHOH}),,IC50 (hMMP-12 [8]): ~30 nM and 29.7 nM; inhibition of MMP-1 (MMP-1 [9]): did not significantly inhibit; inhibition of MMP-3 (MMP-3 [10]): ~ 19%; inhibition of MMP-9 (MMP-9 [11]): did not significantly inhibit; inhibition of MMP-13 (MMP-13 [12]): did not significantly inhibit; inhibition of MMP-14 (MMP-14 [13]): did not significantly inhibit
competitive inhibitors,did not display significant inhibition,appreciable inhibition,did not display significant inhibition,did not display significant inhibition,did not display significant inhibition,COc1ccc(CC[C@@H](NC(=O)[C@H](CCCc2ccccc2)NC(=O)CN2CCOCC2)C(=O)N[C@H](Cc2ccc(C)cc2)C(=O)NO)cc1 [compound 25],significant decrease,peak plasma drug concentration [14]: ~ 580 nM; solubility in formulation [15]: soluble
,,appreciable inhibition,,,,"CNC(=O)[C@H](Cc1c[nH]c2ccccc12)NC(=O)[C@@H](CC(=O)NO)CC(C)C [GM6001, reference compound]",,
